Legend:
Assay type in all cases: in vivo
[1] = test system: foxtail, giant (giant foxtail, Setaria faberii); experiment: Test A preemergence, visual plant response rating; details: for Foxtail, Giant plant response rating: 125 g ai/ha, preemergence, 0 to 100 scale, 0 no effect, 100 complete control; for Foxtail, Giant plant response rating (0 to 100 scale): 500 g ai/ha Preemergence, approx. 10 days
How it was run: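 Ratings 0–100 (100 = complete control), visual, vs untreated controls at ~10 days. Application pre- or postemergence; solvent mixture with surfactant; loam/sand medium.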

[2] = test system: Italian ryegrass (Lolium multiflorum); experiment: Test A preemergence, visual plant response rating; details: for Ryegrass, Italian plant response rating: 125 g ai/ha, preemergence, 0 to 100 scale, 0 no effect, 100 complete control; for Ryegrass, Italian plant response rating (0 to 100 scale): 500 g ai/ha Preemergence, approx. 10 days
How it was run: (§1)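 Compared with untreated controls, treated plants received a visual injury score on a 0–100 scale around 10 days after application. The compound, in a non-phytotoxic solvent with surfactant, was given as a preemergence soil spray or postemergence at the one- to two-leaf stage.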

[3] = test system: ragweed (common ragweed, Ambrosia elatior); experiment: Test A preemergence, visual plant response rating; details: for Ragweed plant response rating: 125 g ai/ha, preemergence, 0 to 100 scale, 0 no effect, 100 complete control; for Ragweed plant response rating (0 to 100 scale): 500 g ai/ha Preemergence, approx. 10 days
How it was run: as §1

[4] = test system: barnyardgrass (Echinochloa crus-galli); experiment: Test A preemergence, visual plant response rating; details: for Barnyardgrass plant response rating: 125 g ai/ha, preemergence, 0 to 100 scale, 0 no effect, 100 complete control; for Barnyardgrass plant response rating (0 to 100 scale): 500 g ai/ha Preemergence, approx. 10 days
How it was run: as §1

[5] = test system: kochia (Kochia scoparia); experiment: Test A preemergence, visual plant response rating; details: for Kochia plant response rating: 125 g ai/ha, preemergence, 0 to 100 scale, 0 no effect, 100 complete control; for Kochia plant response rating (0 to 100 scale): 500 g ai/ha Preemergence, approx. 10 days
How it was run: as §1

[6] = test system: pigweed (Amaranthus retroflexus); experiment: Test A preemergence, visual plant response rating; details: for Pigweed plant response rating: 125 g ai/ha, preemergence, 0 to 100 scale, 0 no effect, 100 complete control; for Pigweed plant response rating (0 to 100 scale): 500 g ai/ha Preemergence, approx. 10 days
How it was run: as §1

[7] = test system: foxtail, giant (giant foxtail, Setaria faberii); experiment: Test A postemergence, visual plant response rating; details: for Foxtail, Giant plant response rating (0 to 100 scale): 500 g ai/ha, postemergence, 0 is no effect, 100 is complete control; for Foxtail, Giant plant response rating: Postemergence, 125 g ai/ha, 0 to 100 scale (0 no effect, 100 complete control)
How it was run: as §1

[8] = test system: Italian ryegrass (Lolium multiflorum); experiment: Test A postemergence, visual plant response rating; details: for Ryegrass, Italian plant response rating (0 to 100 scale): 500 g ai/ha, postemergence, 0 is no effect, 100 is complete control; for Ryegrass, Italian plant response rating: Postemergence, 125 g ai/ha, 0 to 100 scale (0 no effect, 100 complete control)
How it was run: as §1

[9] = test system: ragweed (common ragweed, Ambrosia elatior); experiment: Test A postemergence, visual plant response rating; details: for Ragweed plant response rating (0 to 100 scale): 500 g ai/ha, postemergence, 0 is no effect, 100 is complete control; for Ragweed plant response rating: Postemergence, 125 g ai/ha, 0 to 100 scale (0 no effect, 100 complete control)
How it was run: as §1

[10] = test system: galium (catchweed bedstraw, Galium aparine); experiment: Test A postemergence, visual plant response rating; details: for Galium plant response rating (0 to 100 scale): 500 g ai/ha, postemergence, 0 is no effect, 100 is complete control; for Galium plant response rating: Postemergence, 125 g ai/ha, 0 to 100 scale (0 no effect, 100 complete control)
How it was run: as §1

[11] = test system: barnyardgrass (Echinochloa crus-galli); experiment: Test A postemergence, visual plant response rating; details: for Barnyardgrass plant response rating (0 to 100 scale): 500 g ai/ha, postemergence, 0 is no effect, 100 is complete control; for Barnyardgrass plant response rating: Postemergence, 125 g ai/ha, 0 to 100 scale (0 no effect, 100 complete control)
How it was run: as §1

[12] = test system: corn (Zea mays); experiment: Test A postemergence, visual plant response rating; details: for Corn plant response rating (0 to 100 scale): 500 g ai/ha, postemergence, 0 is no effect, 100 is complete control; for Corn plant response rating: Postemergence, 125 g ai/ha, 0 to 100 scale (0 no effect, 100 complete control)
How it was run: as §1

[13] = test system: blackgrass (Alopecurus myosuroides); experiment: Test A postemergence, visual plant response rating; details: for Blackgrass plant response rating (0 to 100 scale): 500 g ai/ha, postemergence, 0 is no effect, 100 is complete control; for Blackgrass plant response rating: Postemergence, 125 g ai/ha, 0 to 100 scale (0 no effect, 100 complete control)
How it was run: as §1

[14] = test system: wheat (Triticum aestivum); experiment: Test A postemergence, visual plant response rating; details: for Wheat plant response rating (0 to 100 scale): 500 g ai/ha, postemergence, 0 is no effect, 100 is complete control; for Wheat plant response rating: Postemergence, 125 g ai/ha, 0 to 100 scale (0 no effect, 100 complete control)
How it was run: as §1

[15] = test system: kochia (Kochia scoparia); experiment: Test A postemergence, visual plant response rating; details: for Kochia plant response rating (0 to 100 scale): 500 g ai/ha, postemergence, 0 is no effect, 100 is complete control; for Kochia plant response rating: Postemergence, 125 g ai/ha, 0 to 100 scale (0 no effect, 100 complete control)
How it was run: as §1

[16] = test system: pigweed (Amaranthus retroflexus); experiment: Test A postemergence, visual plant response rating; details: for Pigweed plant response rating (0 to 100 scale): 500 g ai/ha, postemergence, 0 is no effect, 100 is complete control; for Pigweed plant response rating: Postemergence, 125 g ai/ha, 0 to 100 scale (0 no effect, 100 complete control)
How it was run: as §1

[17] = test system: sedge, umbrella (small-flower umbrella sedge, Cyperus difformis); experiment: Test B flooded paddy test, visual plant response rating; details: 250 g ai/ha, Flood, applied to paddy water, 2-leaf stage, evaluated after 13 to 15 days
How it was run: (§2)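 Rice, umbrella sedge, ducksalad and barnyardgrass grown to 2-leaf stage; pots flooded 3 cm above soil and compound applied directly to paddy water, depth maintained.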

[18] = test system: ducksalad (Heteranhera limosa); experiment: as above; details: 250 g ai/ha, Flood, applied to paddy water, 2-leaf stage, evaluated after 13 to 15 days
How it was run: as §2

[19] = test system: rice (Oryza sativa); experiment: as above; details: 250 g ai/ha, Flood, applied to paddy water, 2-leaf stage, evaluated after 13 to 15 days
How it was run: as §2

[20] = test system: barnyardgrass (Echinochloa crus-galli); experiment: as above; details: 250 g ai/ha, Flood, applied to paddy water, 2-leaf stage, evaluated after 13 to 15 days
How it was run: as §2

## C=CCO/N=C(\c1c(O)c(C)nn(C)c1=O)c1ccc(F)c2ccccc12 [Compound 86]
[1]
  Foxtail, Giant plant response rating: 100
  Foxtail, Giant plant response rating (0 to 100 scale): 100
[2]
  Ryegrass, Italian plant response rating: 100
  Ryegrass, Italian plant response rating (0 to 100 scale): 100
[3]
  Ragweed plant response rating: 80
  Ragweed plant response rating (0 to 100 scale): 100
[4]
  Barnyardgrass plant response rating: 90
  Barnyardgrass plant response rating (0 to 100 scale): 90
[5]
  Kochia plant response rating: 20
  Kochia plant response rating (0 to 100 scale): 30
[6]
  Pigweed plant response rating: 90
  Pigweed plant response rating (0 to 100 scale): 100
[7]
  Foxtail, Giant plant response rating (0 to 100 scale): 80
  Foxtail, Giant plant response rating: 70
[8]
  Ryegrass, Italian plant response rating (0 to 100 scale): 100
  Ryegrass, Italian plant response rating: 90
[9]
  Ragweed plant response rating (0 to 100 scale): 100
  Ragweed plant response rating: 100
[10]
  Galium plant response rating (0 to 100 scale): 100
  Galium plant response rating: 70
[11]
  Barnyardgrass plant response rating (0 to 100 scale): 80
  Barnyardgrass plant response rating: 50
[12]
  Corn plant response rating (0 to 100 scale): 20
  Corn plant response rating: 0
[13]
  Blackgrass plant response rating (0 to 100 scale): 90
  Blackgrass plant response rating: 90
[14]
  Wheat plant response rating (0 to 100 scale): 80
  Wheat plant response rating: 50
[15]
  Kochia plant response rating (0 to 100 scale): 50
  Kochia plant response rating: 40
[16]
  Pigweed plant response rating (0 to 100 scale): 80
  Pigweed plant response rating: 70
[17]
  Plant response rating, Sedge, Umbrella (0 to 100 scale, 0 is no effect, 100 is complete control): 0
[18]
  Plant response rating, Ducksalad (0 to 100 scale, 0 is no effect, 100 is complete control): 0
[19]
  Plant response rating, Rice (0 to 100 scale, 0 is no effect, 100 is complete control): 0
[20]
  Plant response rating, Barnyardgrass (0 to 100 scale, 0 is no effect, 100 is complete control): 0

## CON=C(c1c(O)c(C)nn(C)c1=O)c1cccc2cc(Br)ccc12 [Compound 100]
[1]
  Foxtail, Giant plant response rating: 60
  Foxtail, Giant plant response rating (0 to 100 scale): 100
[2]
  Ryegrass, Italian plant response rating: 50
  Ryegrass, Italian plant response rating (0 to 100 scale): 100
[3]
  Ragweed plant response rating: 100
  Ragweed plant response rating (0 to 100 scale): 100
[4]
  Barnyardgrass plant response rating: 50
  Barnyardgrass plant response rating (0 to 100 scale): 80
[5]
  Kochia plant response rating: 10
  Kochia plant response rating (0 to 100 scale): 60
[6]
  Pigweed plant response rating: 90
  Pigweed plant response rating (0 to 100 scale): 100
[7]
  Foxtail, Giant plant response rating (0 to 100 scale): 80
  Foxtail, Giant plant response rating: 70
[8]
  Ryegrass, Italian plant response rating (0 to 100 scale): 90
  Ryegrass, Italian plant response rating: 80
[9]
  Ragweed plant response rating (0 to 100 scale): 100
  Ragweed plant response rating: 90
[10]
  Galium plant response rating (0 to 100 scale): 90
  Galium plant response rating: 90
[11]
  Barnyardgrass plant response rating (0 to 100 scale): 70
  Barnyardgrass plant response rating: 30
[12]
  Corn plant response rating (0 to 100 scale): 40
  Corn plant response rating: 10
[13]
  Blackgrass plant response rating (0 to 100 scale): 90
  Blackgrass plant response rating: 90
[14]
  Wheat plant response rating (0 to 100 scale): 50
  Wheat plant response rating: 0
[15]
  Kochia plant response rating (0 to 100 scale): 70
  Kochia plant response rating: 70
[16]
  Pigweed plant response rating (0 to 100 scale): 90
  Pigweed plant response rating: 90
[17]
  Plant response rating, Sedge, Umbrella (0 to 100 scale, 0 is no effect, 100 is complete control): 0
[18]
  Plant response rating, Ducksalad (0 to 100 scale, 0 is no effect, 100 is complete control): 0
[19]
  Plant response rating, Rice (0 to 100 scale, 0 is no effect, 100 is complete control): 0
[20]
  Plant response rating, Barnyardgrass (0 to 100 scale, 0 is no effect, 100 is complete control): 0

Source: patent US20210045385A1, “PYRIDAZINONE-SUBSTITUTED KETOXIMES AS HERBICIDES” (FMC Corporation, priority 2018, published 2021)
